Results on 15 compounds are retold here after patent US20240287076A1, “COMPOUNDS FOR TARGETING DEGRADATION OF BRUTON'S TYROSINE KINASE” (BIOGEN MA INC., priority 2021, published 2024).

SMILES strings stand for the structures.

In the test the target is T1, BTK (Homo sapiens, UniProt Q06187).
T1 construct: The GM01501.3 cell line endogenously expresses BTK with a HiBiT fusion tag via CRISPR knock-in at its C-terminal region; endogenous in cells; host or cells: GM01501.3 (GM01501 cells engineered by CRISPR knock-in of HiBiT at the BTK locus)
T1 sequence (Q06187 whole entry, the tested form may be a part): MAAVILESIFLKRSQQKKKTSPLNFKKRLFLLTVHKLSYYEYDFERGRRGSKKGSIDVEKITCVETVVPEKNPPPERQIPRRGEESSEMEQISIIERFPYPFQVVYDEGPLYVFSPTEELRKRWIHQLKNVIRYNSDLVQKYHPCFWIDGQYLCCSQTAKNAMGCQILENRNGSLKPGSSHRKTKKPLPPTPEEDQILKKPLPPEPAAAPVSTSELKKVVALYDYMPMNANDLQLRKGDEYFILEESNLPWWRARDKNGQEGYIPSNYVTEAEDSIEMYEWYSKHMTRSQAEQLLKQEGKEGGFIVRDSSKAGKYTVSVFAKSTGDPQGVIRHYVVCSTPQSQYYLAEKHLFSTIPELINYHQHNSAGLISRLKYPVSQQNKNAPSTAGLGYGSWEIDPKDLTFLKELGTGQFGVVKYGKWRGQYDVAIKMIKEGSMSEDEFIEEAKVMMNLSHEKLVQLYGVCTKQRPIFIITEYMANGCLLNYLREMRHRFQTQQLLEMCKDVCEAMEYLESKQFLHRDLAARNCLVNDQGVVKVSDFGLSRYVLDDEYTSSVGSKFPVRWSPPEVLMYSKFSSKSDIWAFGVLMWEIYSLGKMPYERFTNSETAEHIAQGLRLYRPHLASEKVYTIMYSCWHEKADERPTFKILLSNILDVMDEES
Nature of the test: BTK degradation assay using the HiBiT Method (Nano-Glo HiBiT Lytic Assay, GM01501.3 cells). In kind it is cell-based. Particulars: HiBiT Degradation on GM01501.3 BTK @ 6 hours. The gist of the method:
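Degradation read-out: HiBiT luminescence after lytic reagent addition, giving DC50. Compounds dosed from 10 μM in 11 half-log steps (duplicate) onto GM01501.3 cells, whose endogenous BTK carries a C-terminal HiBiT knock-in tag; 6 h exposure, 37 °C, 5% CO2.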
The DC50 is the concentration giving 50% degradation. In turn, `Cc1cc(-c2ncnn3cc(-c4ccc(CN5CCCC(c6ccc(NC7CCC(=O)NC7=O)cc6)C5)cc4)cc23)ccc1CNC(=O)c1noc(C(C)(C)C)n1` (stereo not drawn) [Example 7, 5-tert-butyl-N-[[4-[6-[4-[[3-[4-[(2,6-dioxo-3-piperidyl)amino]phenyl]-1-piperidyl]methyl]phenyl]pyrrolo[2,1-f][1,2,4]triazin-4-yl]-2-methyl-phenyl]methyl]-1,2,4-oxadiazole-3-carboxamide] came in with a DC50 of less than 0.1 µM.
In the case of `Cc1cc(-c2ncnn3cc(-c4ccc(CN5CCCC(c6ccc(C7CCC(=O)NC7=O)cc6)C5)cc4)cc23)ccc1CNC(=O)c1noc(C(C)(C)C)n1` (stereo not drawn) [Example 8, 5-tert-butyl-N-[[4-[6-[4-[[3-[4-(2,6-dioxo-3-piperidyl)phenyl]-1-piperidyl]methyl]phenyl]pyrrolo[2,1-f][1,2,4]triazin-4-yl]-2-methyl-phenyl]methyl]-1,2,4-oxadiazole-3-carboxamide] it was 0.1 to 0.5 µM; in that of `Cc1cc(-c2ncnn3cc(-c4ccc5c(c4)CN(CCc4ccc(NC6CCC(=O)NC6=O)cc4)CC5)cc23)ccc1CNC(=O)c1noc(C(C)(C)C)n1` (stereo not drawn) [Example 60, 5-tert-butyl-N-[[4-[6-[2-[2-[4-[(2,6-dioxo-3-piperidyl)amino]phenyl]ethyl]-3,4-dihydro-1H-isoquinolin-7-yl]pyrrolo[2,1-f] [1,2,4]triazin-4-yl]-2-imethyl-phenyl]methyl]-1,2,4-oxadiazole-3-carboxamide], less than 0.1 µM; in that of `Cc1cc(-c2ncnn3cc(CCN4CCC(c5ccc(OC6CCC(=O)NC6=O)cn5)CC4)cc23)ccc1CNC(=O)c1noc(C(C)(C)C)n1` (stereo not drawn) [Example 264, 5-(tert-butyl)-N-(4-(6-(2-(4-(5-((2,6-dioxopiperidin-3-yl)oxy)pyridin-2-yl)piperidin-1-yl)ethyl)pyrrolo[2,1-f][1,2,4]triazin-4-yl)-2-methylbenzyl)-1,2,4-oxadiazole-3-carboxamide], less than 0.1 µM.
For `CCc1ccc(C(=O)NCc2ccc(-c3ncnn4cc(-c5ccc(CN6CCC(c7ccc(NC8CCC(=O)NC8=O)cc7)CC6)cc5)cc34)cc2C)cc1` (stereo not drawn) [Example 67, N-[[4-[6-[4-[[4-[4-[(2,6-dioxo-3-piperidyl)amino]phenyl]-1-piperidyl]methyl]phenyl]pyrrolo[2,1-f][1,2,4]triazin-4-yl]-2-methyl-phenyl]methyl]-4-ethyl-benzamide], the DC50 is less than 0.1 µM.
In the case of `Cc1cc(-c2ncnn3cc(-c4ccc(CN5CCOC(c6ccc(NC7CCC(=O)NC7=O)cc6)C5)cc4)cc23)ccc1CNC(=O)c1noc(C(C)(C)C)n1` (stereo not drawn) [Example 200, 5-(tert-butyl)-N-(4-(6-(4-((2-(4-((2,6-dioxopiperidin-3-yl)amino)phenyl)morpholino)methyl)phenyl)pyrrolo[2,1-f][1,2,4]triazin-4-yl)-2-methylbenzyl)-1,2,4-oxadiazole-3-carboxamide] it was less than 0.1 µM; in that of `Cc1cc(-c2ncnn3cc(-c4cccc(CN5CCC(c6ccc(OC7CCC(=O)NC7=O)cc6)CC5)n4)cc23)ccc1CNC(=O)c1noc(C(C)(C)C)n1` (stereo not drawn) [Example 247, 5-(tert-butyl)-N-(4-(6-(6-((4-(4-((2,6-dioxopiperidin-3-yl)oxy)phenyl)piperidin-1-yl)methyl)pyridin-2-yl)pyrrolo[2,1-f][1,2,4]triazin-4-yl)-2-methylbenzyl)-1,2,4-oxadiazole-3-carboxamide], less than 0.1 µM; in that of `Cc1cc(-c2ncnn3cc(-c4ccc(CCCCc5ccc(NC6CCC(=O)NC6=O)cc5)cc4)cc23)ccc1CNC(=O)c1noc(C(C)(C)C)n1` (stereo not drawn) [Example 149, 5-tert-butyl-N-[[4-[6-[4-[4-[4-[(2,6-dioxo-3-piperidyl)amino]phenyl]butyl]phenyl]pyrrolo[2,1-f][1,2,4]triazin-4-yl]-2-methyl-phenyl]methyl]-1,2,4-oxadiazole-3-carboxamide], 0.1 to 0.5 µM.
In the case of `Cc1cc(-c2ncnn3cc(CN4CCN(CCCc5ccc(NC6CCC(=O)NC6=O)cc5)CC4)cc23)ccc1CNC(=O)c1noc(C(C)(C)C)n1` (stereo not drawn) [Example 126, 5-tert-butyl-N-[[4-[6-[[4-[3-[4-[(2,6-dioxo-3-piperidyl)amino]phenyl]propyl]piperazin-1-yl]methyl]pyrrolo[2,1-f][1,2,4]triazin-4-yl]-2-methyl-phenyl]methyl]-1,2,4-oxadiazole-3-carboxamide] it was 0.1 to 0.5 µM.
In the case of `Cc1cc(-c2ncnn3cc(CCCCN4CCC(c5ccc(N6CCC(=O)NC6=O)cc5)CC4)cc23)ccc1CNC(=O)c1noc(C(C)(C)C)n1` [Example 129, 5-tert-butyl-N-[[4-[6-[4-[4-[4-(2,4-dioxohexahydropyrimidin-1-yl)phenyl]-1-piperidyl]butyl]pyrrolo[2,1-f][1,2,4]triazin-4-yl]-2-methyl-phenyl]methyl]-1,2,4-oxadiazole-3-carboxamide] it was less than 0.1 µM; in that of `O=C1CCC(Nc2ccc(C3CCN(Cc4ccc(-c5cc6c(-c7ccc(CNC(=O)c8ccc(C(F)F)cc8)c(F)c7)ncnn6c5)cc4)CC3)nc2)C(=O)N1` (stereo not drawn) [Example 102, 4-(difluoromethyl)-N-[[4-[6-[4-[[4-[5-[(2,6-dioxo-3-piperidyl)amino]-2-pyridyl]-1-piperidyl]methyl]phenyl]pyrrolo[2,1-f][1,2,4]triazin-4-yl]-2-fluoro-phenyl]methyl]benzamide], less than 0.1 µM; in that of `Cc1cc(-c2ncnn3cc(CCCN4CCC(c5ccc(NC6CCC(=O)NC6=O)cc5)CC4)cc23)ccc1CNC(=O)c1noc(C(C)(C)C)n1` (stereo not drawn) [Example 127, 5-tert-butyl-N-[[4-[6-[3-[4-[4-[(2,6-dioxo-3-piperidyl)amino]phenyl]-1-piperidyl]propyl]pyrrolo[2,1-f][1,2,4]triazin-4-yl]-2-methyl-phenyl]methyl]-1,2,4-oxadiazole-3-carboxamide], less than 0.1 µM.
On to `CN(Cc1ccc(-c2ncnn3cc(-c4ccc(CN5CCC(c6ccc7c(N8CCC(=O)NC8=O)nn(C)c7c6)CC5)cc4)cc23)cc1F)C(=O)c1noc(C(C)(C)C)n1` [Example 37, 5-tert-butyl-N-[[4-[6-[4-[[4-[3-(2,4-dioxohexahydropyrimidin-1-yl)-1-methyl-indazol-6-yl]-1-piperidyl]methyl]phenyl]pyrrolo[2,1-f][1,2,4]triazin-4-yl]-2-fluoro-phenyl]methyl]-N-methyl-1,2,4-oxadiazole-3-carboxamide], for which the DC50 fell in the range of 0.1 to 0.5 µM.
In the case of `Cc1cc(-c2ncnn3cc(-c4ccc(CN5CCC(c6ccc(NC7CCC(=O)NC7=O)cc6)CC5)cc4)cc23)ccc1CNC(=O)c1cccnc1` (stereo not drawn) [Example 90, N-[[4-[6-[4-[[4-[4-[(2,6-dioxo-3-piperidyl)amino]phenyl]-1-piperidyl]methyl]phenyl]pyrrolo[2,1-f][1,2,4]triazin-4-yl]-2-methyl-phenyl]methyl]pyridine-3-carboxamide] it was less than 0.1 µM; in that of `Cc1cc(-c2ccnn3cc(CCCCN4CCC(c5ccc(NC6CCC(=O)NC6=O)cc5)CC4)cc23)ccc1CNC(=O)c1noc(C(C)(C)C)n1` (stereo not drawn) [Example 156, 5-tert-butyl-N-[[4-[6-[4-[4-[4-[(2,6-dioxo-3-piperidyl)amino]phenyl]-1-piperidyl]butyl]pyrrolo[1,2-b]pyridazin-4-yl]-2-methyl-phenyl]methyl]-1,2,4-oxadiazole-3-carboxamide], less than 0.1 µM.
